In PubChem BioAssay (NCI) one finds GI50 and TGI data, which are given here for 13 compounds.

Some test systems named below: HCT-116 colon; NCI-H23 lung; LOX IMVI melanoma; NCI-H460 lung; 786-0 renal; SF-539 CNS; SK-MEL-2 melanoma; NCI-H522 lung; KM12 colon; M14 melanoma.
Experiment in all cases: DTP human tumour cell line panel, 48 h

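Cultured in 96-well plates, cells were exposed to test compound for 48 hours across five concentrations. Abbreviation: GI50, concentration required for 50% inhibition of growth. TGI: concentration producing complete growth inhibition.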

In the case of `C/C(=C/CCC(C)[C@@H]1CC[C@]2(C)C3=C(CC[C@@]12C)[C@@]1(C)CCC(=O)C(C)(C)[C@@H]1CC3)C(=O)O` (stereo not given in full), the GI50 (commonly the concentration giving 50% growth inhibition) is 0.858 µM in the assay with HCT-116 colon; 0.885 µM in the assay on NCI-H23 lung; 0.961 µM in the assay on LOX IMVI melanoma; 1.28 µM in the assay on NCI-H460 lung; 1.18 µM with 786-0 renal; 1.37 µM with SF-539 CNS. The GI50 in the assay on SK-MEL-2 melanoma was 1.26 µM; in the assay on NCI-H522 lung, 0.728 µM; with KM12 colon, 0.747 µM; in the assay with M14 melanoma, 1.1 µM. Moreover, the TGI (in general, the concentration giving total growth inhibition) with HCT-116 colon was found to be 2.3 µM; in the assay on NCI-H23 lung, 2.37 µM; in the assay on LOX IMVI melanoma, 2.49 µM; with NCI-H460 lung it was 4.02 µM; with 786-0 renal, 2.57 µM; in the assay on SF-539 CNS it was 2.93 µM. Also, the TGI with SK-MEL-2 melanoma was 2.89 µM; with NCI-H522 lung, 2.21 µM; in the assay on KM12 colon it was 2.3 µM; in the assay on M14 melanoma, 2.64 µM.
`CC(C)(C)O/N=C/c1cc(NC(=S)c2ccccc2)ccc1Cl`: the TGI with HCT-116 colon amounted to 29.4 µM; in the assay with NCI-H23 lung, 34.1 µM; with LOX IMVI melanoma, 30.4 µM; in the assay on NCI-H460 lung it was 24.3 µM; in the assay with 786-0 renal it was 32.5 µM; in the assay with SF-539 CNS, 71.4 µM. The total growth inhibition concentration (TGI) was found to be 39.6 µM with SK-MEL-2 melanoma, 28.2 µM with NCI-H522 lung, 25.7 µM with KM12 colon and 54.1 µM with M14 melanoma.
`O=C([O-])c1ccc([I+]c2ccccc2)cc1`: the TGI in the assay with HCT-116 colon, in the assay on NCI-H23 lung, with LOX IMVI melanoma, in the assay with NCI-H460 lung, in the assay on 786-0 renal and in the assay on SF-539 CNS was above 100 µM throughout. Besides, the concentration for total growth inhibition (TGI) in the assay with SK-MEL-2 melanoma, with NCI-H522 lung, in the assay on KM12 colon and in the assay on M14 melanoma was above 100 µM throughout.
On to `O=C1C=CC2(CCC23C=CC(=O)O3)O1` (stereo not given), for which the TGI with HCT-116 colon, with NCI-H23 lung, in the assay on LOX IMVI melanoma, in the assay with NCI-H460 lung, with 786-0 renal and with SF-539 CNS was above 100 µM throughout. Also, the total growth inhibition concentration (TGI) in the assay with SK-MEL-2 melanoma, in the assay with NCI-H522 lung, in the assay on KM12 colon and with M14 melanoma was above 100 µM each time.
For `C#COc1cccc(Nc2ncnc3cc(NC(=O)[C@@H](C)Cl)ccc23)c1`, the GI50 in the assay on HCT-116 colon is 2.98 µM; in the assay on NCI-H23 lung, 17.2 µM; in the assay with LOX IMVI melanoma, 4.88 µM; in the assay on NCI-H460 lung, 7.63 µM; with 786-0 renal, 19.3 µM; in the assay on SF-539 CNS, 8.61 µM. Moreover, the GI50 is 5.24 µM in the assay on SK-MEL-2 melanoma, 3.96 µM with NCI-H522 lung, 3.25 µM in the assay on KM12 colon and 3.92 µM with M14 melanoma. In addition, the concentration for total growth inhibition (TGI) was above 62.5 µM in the assay on HCT-116 colon; above 62.5 µM in the assay on NCI-H23 lung; above 62.5 µM in the assay on LOX IMVI melanoma; above 62.5 µM in the assay with NCI-H460 lung; above 62.5 µM with 786-0 renal; 46 µM in the assay with SF-539 CNS. Further, the TGI in the assay on SK-MEL-2 melanoma was above 62.5 µM; with NCI-H522 lung, 40.8 µM; with KM12 colon it was above 62.5 µM; in the assay on M14 melanoma, above 62.5 µM.
Take `Nc1c(C(=O)Nc2ccccc2)sc2nc3c(cc12)C(=O)CCC3`: the GI50 in the assay with HCT-116 colon was 0.512 µM; in the assay on NCI-H23 lung, 0.833 µM; in the assay on NCI-H460 lung, 0.346 µM; with 786-0 renal, 1.27 µM; in the assay with SF-539 CNS, 0.384 µM; with SK-MEL-2 melanoma it was 0.35 µM. Also, the GI50 was 0.215 µM in the assay with NCI-H522 lung, 0.323 µM with KM12 colon and 0.401 µM in the assay on M14 melanoma. Also, the TGI was above 100 µM with HCT-116 colon; above 100 µM in the assay on NCI-H23 lung; above 100 µM with LOX IMVI melanoma; above 100 µM with 786-0 renal; above 26.1 µM with SF-539 CNS; 1.29 µM in the assay on NCI-H522 lung. Moreover, the TGI is above 100 µM in the assay with KM12 colon and above 32.9 µM in the assay with M14 melanoma.
Regarding `C/C(=N\NC(=S)N1CCC1)c1ccccn1`, the GI50 with HCT-116 colon is 0.00278 µM; in the assay on NCI-H23 lung it was 0.00622 µM; in the assay on LOX IMVI melanoma, 0.00525 µM; in the assay with NCI-H460 lung, 0.07 µM; with 786-0 renal, 0.0555 µM; in the assay with SF-539 CNS, 0.0629 µM. Moreover, the GI50 in the assay on NCI-H522 lung is 0.00976 µM; in the assay on KM12 colon it was 0.0477 µM; in the assay on M14 melanoma it was 0.0229 µM. Also, the TGI was 52.2 µM in the assay on HCT-116 colon; 39.7 µM in the assay on NCI-H23 lung; 15.9 µM with LOX IMVI melanoma; 6.33 µM in the assay on NCI-H460 lung; above 52.4 µM with 786-0 renal; 5.31 µM in the assay with SF-539 CNS. The TGI in the assay with SK-MEL-2 melanoma was 33.3 µM; in the assay with NCI-H522 lung, above 45.9 µM; in the assay with KM12 colon it was 46.7 µM; in the assay on M14 melanoma, 1.84 µM.
`N#CN1CC[C@H](C(=O)Nc2ncc(-c3ccccc3)s2)C1`: the 50% growth inhibitory concentration (GI50) in the assay on HCT-116 colon is 0.323 µM; in the assay on NCI-H23 lung, 0.705 µM; in the assay on LOX IMVI melanoma, 0.267 µM; in the assay with NCI-H460 lung, 0.423 µM; in the assay on 786-0 renal, 0.404 µM; in the assay with SF-539 CNS, 0.294 µM. In addition, the GI50 in the assay on SK-MEL-2 melanoma was 0.274 µM; in the assay with NCI-H522 lung, 0.205 µM; in the assay on KM12 colon, 0.592 µM; with M14 melanoma it was 0.495 µM. The total growth inhibition concentration (TGI) in the assay on HCT-116 colon is 2.18 µM; in the assay with NCI-H23 lung, 6.46 µM; with LOX IMVI melanoma, 1.65 µM; in the assay on NCI-H460 lung, 2.47 µM; in the assay with 786-0 renal it was 2.48 µM; in the assay on SF-539 CNS it was 1.38 µM. Further, the TGI in the assay with SK-MEL-2 melanoma was 0.726 µM; with NCI-H522 lung, 0.547 µM; in the assay on KM12 colon, 2.78 µM; in the assay on M14 melanoma, 2.22 µM.
Turning to `Cc1ccc2ccc3c4ccccc4ccc3c2c1`, the GI50 is 31.2 µM with HCT-116 colon; 22.4 µM in the assay with NCI-H23 lung; 19.8 µM in the assay with LOX IMVI melanoma; 26.3 µM in the assay on NCI-H460 lung; 24.4 µM in the assay with 786-0 renal; 47.7 µM in the assay on SF-539 CNS. Besides, the GI50 is 19 µM with SK-MEL-2 melanoma, 19.1 µM in the assay on NCI-H522 lung, 21.6 µM with KM12 colon and 28.6 µM in the assay with M14 melanoma. Moreover, the TGI with HCT-116 colon is above 100 µM; in the assay with NCI-H23 lung it was 96.5 µM; with LOX IMVI melanoma, 44.3 µM; with NCI-H460 lung, 76 µM; in the assay with 786-0 renal it was 69.8 µM; in the assay with SF-539 CNS it was above 100 µM. Moreover, the TGI in the assay on SK-MEL-2 melanoma was 41.8 µM; with NCI-H522 lung it was 51.7 µM; in the assay with KM12 colon it was 68.5 µM; with M14 melanoma, above 100 µM.
Turning to `O=C(Nc1ccc(-n2cc(-c3ccncc3)c(-c3ccc(Cl)c(O)c3)n2)cc1)c1cc(C(F)(F)F)cc(C(F)(F)F)c1`, the GI50 with HCT-116 colon was 4.72 µM; with NCI-H23 lung, 6.09 µM; in the assay on LOX IMVI melanoma it was 2.54 µM; in the assay with NCI-H460 lung, 3.82 µM; in the assay on 786-0 renal, 3.78 µM; with SF-539 CNS it was 2.95 µM. In addition, the GI50 in the assay on SK-MEL-2 melanoma is 6.61 µM; in the assay on NCI-H522 lung it was 14 µM; in the assay on KM12 colon, 4.01 µM; in the assay on M14 melanoma it was 6.34 µM. Besides, the TGI stood at 17.5 µM in the assay on HCT-116 colon; 29.5 µM in the assay on NCI-H23 lung; 10.4 µM in the assay with LOX IMVI melanoma; 14 µM with NCI-H460 lung; 13.6 µM in the assay on 786-0 renal; 13.8 µM with SF-539 CNS. For the same compound, the TGI in the assay on SK-MEL-2 melanoma was determined as 31.7 µM; in the assay on NCI-H522 lung, 57.7 µM; in the assay on KM12 colon, 16.2 µM; with M14 melanoma it was 89.2 µM.
On to `COc1cc([C@@H]2c3cc4c(cc3[C@H](SC(=N)N)[C@H]3COC(=O)[C@H]23)OCO4)cc(OC)c1OC`, for which the concentration for 50% growth inhibition (GI50) was 0.197 µM in the assay with HCT-116 colon; 0.299 µM with NCI-H23 lung; 0.0799 µM with LOX IMVI melanoma; 0.294 µM in the assay on NCI-H460 lung; 0.435 µM in the assay with 786-0 renal; 0.144 µM with SF-539 CNS. Besides, the GI50 with SK-MEL-2 melanoma was 5.78 µM; in the assay on NCI-H522 lung, 0.125 µM; in the assay on KM12 colon it was 0.0944 µM; with M14 melanoma, 0.288 µM. For the same compound, the TGI in the assay on HCT-116 colon is above 100 µM; in the assay with NCI-H23 lung, above 100 µM; with LOX IMVI melanoma, above 100 µM; in the assay with NCI-H460 lung, 56.1 µM; in the assay with 786-0 renal, above 100 µM; with SF-539 CNS it was above 100 µM. For the same compound, the TGI is above 100 µM with SK-MEL-2 melanoma, 0.409 µM in the assay with KM12 colon and above 100 µM in the assay on M14 melanoma.
For the compound `COc1ccc(N(CC(=O)O)N=O)cc1`, the TGI with HCT-116 colon, in the assay with NCI-H23 lung, in the assay on LOX IMVI melanoma, in the assay with NCI-H460 lung, in the assay on 786-0 renal and in the assay with SF-539 CNS was above 100 µM in each case. The concentration for total growth inhibition (TGI) with SK-MEL-2 melanoma, with NCI-H522 lung, in the assay on KM12 colon and with M14 melanoma was above 100 µM in each case.
Regarding `OCc1ccc(-c2ccc(-c3ccc(CO)o3)o2)o1`, the GI50 in the assay with HCT-116 colon is above 88.9 µM; in the assay with NCI-H23 lung, above 100 µM; in the assay with LOX IMVI melanoma, above 100 µM; in the assay on NCI-H460 lung it was above 100 µM; in the assay on 786-0 renal, 35.3 µM; with SF-539 CNS, above 100 µM. Further, the GI50 was 38.8 µM with SK-MEL-2 melanoma, above 100 µM with NCI-H522 lung, above 100 µM in the assay on KM12 colon and above 100 µM with M14 melanoma. Also, the TGI in the assay with HCT-116 colon, in the assay with NCI-H23 lung, with LOX IMVI melanoma, in the assay with NCI-H460 lung, with 786-0 renal and in the assay on SF-539 CNS was above 100 µM in each case. For the same compound, the total growth inhibition concentration (TGI) was 97.1 µM in the assay on SK-MEL-2 melanoma, above 100 µM in the assay on NCI-H522 lung, above 100 µM in the assay on KM12 colon and above 100 µM with M14 melanoma.
